Assay results published in patent US4518779A, “1,2,3,4-Tetrahydro-1-aminomethyl-4-phenyl isoquinolines” (Pennwalt Corporation, priority 1982, dated 1985).
Structures can show the parent of a compound that is named as a salt. Where two headings read alike, the source gives them in different places.

Target: [^3 H]-mepyramine binding in brain homogenates (Rattus norvegicus, UniProt P31390)
Test: biochemical
Conditions: read-out: (^3 H)mepyramine rating: molar concentration required to inhibit by 50% the binding of [^3 H]mepyramine
[1] = in vitro, brain homogenates, smaller numbers indicate greater potency

[^3 H]-mepyramine binding in brain homogenates, sequence (P31390 whole entry): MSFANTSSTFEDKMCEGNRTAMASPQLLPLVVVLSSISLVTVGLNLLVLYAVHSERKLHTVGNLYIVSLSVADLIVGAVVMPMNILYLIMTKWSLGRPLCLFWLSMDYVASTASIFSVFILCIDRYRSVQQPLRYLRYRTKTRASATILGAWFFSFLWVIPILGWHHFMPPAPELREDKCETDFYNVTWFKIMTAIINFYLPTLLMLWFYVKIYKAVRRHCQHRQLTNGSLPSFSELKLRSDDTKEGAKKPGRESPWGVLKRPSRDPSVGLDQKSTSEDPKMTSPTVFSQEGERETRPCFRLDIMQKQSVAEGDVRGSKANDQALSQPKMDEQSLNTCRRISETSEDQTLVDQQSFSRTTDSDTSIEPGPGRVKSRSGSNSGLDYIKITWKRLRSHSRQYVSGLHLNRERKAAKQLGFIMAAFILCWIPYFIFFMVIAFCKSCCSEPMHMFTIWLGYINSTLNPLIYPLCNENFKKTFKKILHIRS

IC50 [nM] | IC50 [1] [nM] | SMILES
78 | – | CNC[C@@H]1NC[C@@H](c2ccccc2)c2ccccc21 (relative stereo) [Example 1 trans form, trans-1,2,3,4-tetrahydro-1-methylaminomethyl-4-phenylisoquinoline dihydrochloride]
3500 | – | CNC[C@@H]1NC[C@H](c2ccccc2)c2ccccc21 (relative stereo) [Example 1 cis form, cis-1,2,3,4-tetrahydro-1-methylaminomethyl-4-phenylisoquinoline dihydrochloride]
– | > 1000 | CCNC[C@@H]1NC[C@H](c2ccccc2)c2ccccc21 (relative stereo) [Example 4, 1,2,3,4-tetrahydro-1-(ethylamino)methyl-4-phenylisoquinoline dihydrochloride]
– | 2800 | CN(C)C[C@@H]1NC[C@H](c2ccccc2)c2ccccc21 (relative stereo) [Example 2, 1,2,3,4-tetrahydro-1-dimethylaminomethyl-4-phenylisoquinoline dihydrochloride]
– | 1800 | CN(C)C[C@H]1c2ccccc2[C@@H](c2ccccc2)CN1C (relative stereo) [Example 3, 1,2,3,4-tetrahydro-2-methyl-1-dimethylaminomethyl-4-phenylisoquinoline dihydrochloride]
